In PMC8552062, “Contributions of UDP-Glucuronosyltransferases to Human Hepatic and Intestinal Metabolism of Ticagrelor and Inhibition of UGTs and Cytochrome P450 Enzymes by Ticagrelor and its Glucuronidated Metabolite” (Frontiers in Pharmacology, 2021):

Experiments:
Type in all cases: in vitro ADME
Set-up in all cases: tissue XenoTech LLC; host or cells: pooled human liver microsomes
UGT1A1 = biological target: T1, UGT1A1 (Homo sapiens, UniProt P22309); assay: UGT1A1 inhibition in HLM (SN-38 glucuronidation); conditions: for IC50: UGT1A1, SN-38 glucuronide formation in HLM
T1 sequence (P22309 26-533): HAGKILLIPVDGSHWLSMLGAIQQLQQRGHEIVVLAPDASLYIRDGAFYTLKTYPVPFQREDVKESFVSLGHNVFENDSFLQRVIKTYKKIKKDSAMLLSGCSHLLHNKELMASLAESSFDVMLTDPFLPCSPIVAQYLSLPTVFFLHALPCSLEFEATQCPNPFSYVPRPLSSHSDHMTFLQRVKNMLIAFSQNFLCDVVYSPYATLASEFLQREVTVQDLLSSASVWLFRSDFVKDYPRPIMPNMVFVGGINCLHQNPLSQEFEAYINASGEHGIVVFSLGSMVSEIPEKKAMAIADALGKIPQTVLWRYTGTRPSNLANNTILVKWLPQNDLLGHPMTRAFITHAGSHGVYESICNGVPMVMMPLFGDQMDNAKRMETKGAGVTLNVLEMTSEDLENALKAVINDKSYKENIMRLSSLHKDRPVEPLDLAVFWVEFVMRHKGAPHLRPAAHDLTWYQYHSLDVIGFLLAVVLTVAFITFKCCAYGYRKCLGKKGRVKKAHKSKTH
Description: (§1) To assess drug-drug interactions (DDIs) potential caused by ticagrelor and ticagrelor-O-Glu through the inhibition of the major human UGTs enzymes, selective UGT probe substrates were co-incubated with ticagrelor or ticagrelor-O-Glu in HLM. The formation of metabolites, SN-38 glucuronide, chenodeoxycholic acid 24-acyl-β-D-glucuronide, trifluoperazine N-glucuronide, N-Acetyl serotonin glucuronide, mycophenolic acid glucuronide and 3′-azide-3′-deoxythymidine β-D-glucuronide, which could reflect the enzyme activities of UGT1A1, UGT1A3, UGT1A4, UGT1A6, UGT1A9 and UGT2B7, respectively, were quantified using LC-MS/MS. Three different concentrations of ticagrelor or ticagrelor-O-Glu (1, 10 and 100 μM) were added to the incubation system in the presence of selective UGT probe substrates (SN-38, chenodeoxycholic acid, trifluoperazine, N-Acetyl serotonin, mycophenolic acid and 3′-azide-3′-deoxythymidine), respectively. The assays were performed as described above. The control was treated with a vehicle solvent only. A triple determination was performed.
(§2) The percent inhibition relative to the control was calculated to indicate the UGTs or CYPs inhibition. For inhibition exceeding 50% of the control activity, nonlinear regression analysis was used to estimate the IC50 values using the GraphPad Prism 6 (GraphPad Software Inc., CA, United States).

UGT1A9 = biological target: T2, UGT1A9 (Homo sapiens, UniProt O60656); assay: UGT1A9 inhibition in HLM (mycophenolic acid glucuronidation); conditions: for IC50: UGT1A9, mycophenolic acid glucuronide formation in HLM; for inhibition at 100 µM: human, human liver microsomes (HLM), probe mycophenolic acid, HLM, 100 μM test compound
T2 sequence (O60656 26-530): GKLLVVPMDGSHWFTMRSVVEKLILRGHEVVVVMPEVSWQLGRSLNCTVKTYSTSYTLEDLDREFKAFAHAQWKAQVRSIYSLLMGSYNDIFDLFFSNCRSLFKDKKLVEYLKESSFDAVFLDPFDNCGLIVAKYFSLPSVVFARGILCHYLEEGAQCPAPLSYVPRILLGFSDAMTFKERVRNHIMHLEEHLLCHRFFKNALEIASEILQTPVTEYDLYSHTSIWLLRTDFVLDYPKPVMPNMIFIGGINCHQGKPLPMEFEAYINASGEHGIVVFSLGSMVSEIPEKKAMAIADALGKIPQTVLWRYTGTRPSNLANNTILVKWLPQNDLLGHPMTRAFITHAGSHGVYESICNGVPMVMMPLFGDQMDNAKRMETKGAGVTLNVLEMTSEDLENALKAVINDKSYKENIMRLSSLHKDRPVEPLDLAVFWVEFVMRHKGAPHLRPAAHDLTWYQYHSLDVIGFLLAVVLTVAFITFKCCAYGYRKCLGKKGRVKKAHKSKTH
Description: as §1, §2

UGT1A4 = biological target: T3, UGT1A4 (Homo sapiens, UniProt P22310); assay: UGT1A4 inhibition in HLM (trifluoperazine N-glucuronidation); conditions: for inhibitory effect on UGT1A4: HLM, 1, 10 and 100 μM; for IC50: UGT1A4, trifluoperazine N-glucuronide formation in HLM
T3 sequence (P22310 29-534): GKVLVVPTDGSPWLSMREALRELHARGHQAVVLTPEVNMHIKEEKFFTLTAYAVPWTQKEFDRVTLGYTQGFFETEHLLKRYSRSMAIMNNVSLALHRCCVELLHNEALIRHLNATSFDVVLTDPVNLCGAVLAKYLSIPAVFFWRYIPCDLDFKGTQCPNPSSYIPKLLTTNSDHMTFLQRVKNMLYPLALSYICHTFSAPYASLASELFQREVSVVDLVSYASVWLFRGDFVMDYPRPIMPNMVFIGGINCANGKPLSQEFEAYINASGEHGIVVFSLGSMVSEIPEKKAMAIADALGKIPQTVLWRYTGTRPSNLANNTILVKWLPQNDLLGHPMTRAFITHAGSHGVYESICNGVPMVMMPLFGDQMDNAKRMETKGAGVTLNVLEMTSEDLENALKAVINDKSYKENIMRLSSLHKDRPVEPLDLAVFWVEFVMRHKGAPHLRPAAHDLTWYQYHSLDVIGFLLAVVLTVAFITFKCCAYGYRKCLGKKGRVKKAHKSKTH
Description: as §1, §2

UGT1A6 = biological target: T4, UGT1A6 (Homo sapiens, UniProt P19224); assay: UGT1A6 inhibition in HLM (N-Acetyl serotonin glucuronidation); conditions: for IC50: UGT1A6, N-Acetyl serotonin glucuronide formation in HLM; for inhibition at 100 µM: human, human liver microsomes (HLM), probe N-Acetyl serotonin, HLM, 100 μM test compound
T4 sequence (P19224 27-532): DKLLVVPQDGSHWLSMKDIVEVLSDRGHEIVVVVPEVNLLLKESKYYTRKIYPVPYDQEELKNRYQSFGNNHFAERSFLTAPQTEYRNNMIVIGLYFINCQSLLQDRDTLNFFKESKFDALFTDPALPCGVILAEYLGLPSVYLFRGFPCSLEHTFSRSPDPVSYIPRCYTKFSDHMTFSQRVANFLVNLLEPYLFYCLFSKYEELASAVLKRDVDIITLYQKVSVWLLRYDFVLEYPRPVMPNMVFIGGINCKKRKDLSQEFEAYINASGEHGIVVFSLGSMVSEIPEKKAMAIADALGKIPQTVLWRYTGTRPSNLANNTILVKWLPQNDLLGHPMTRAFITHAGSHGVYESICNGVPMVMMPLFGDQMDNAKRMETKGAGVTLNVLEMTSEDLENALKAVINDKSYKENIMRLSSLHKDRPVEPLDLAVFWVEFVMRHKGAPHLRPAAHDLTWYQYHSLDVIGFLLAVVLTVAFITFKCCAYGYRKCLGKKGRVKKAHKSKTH
Description: as §1, §2

Row | IC50 (UGT1A1) [µM] | inhibition at 100 µM (UGT1A1; human, human liver microsomes (HLM), probe SN-38, HLM, 100 μM test compound) [%] | IC50 (UGT1A9) [µM] | inhibition at 100 µM (UGT1A9) [%] | inhibitory effect on UGT1A4 (UGT1A4) | IC50 (UGT1A4) [µM] | IC50 (UGT1A6) [µM] | inhibition at 100 µM (UGT1A6) [%] | inhibitory effect on UGT1A1 (UGT1A1; HLM, concentration up to 100 μM) | SMILES
1 | ~100 | 56.8 | > 100 | 13.3 | No significant inhibitory effect | > 100 | > 100 | 12.7 | – | CCCSc1nc(N[C@@H]2C[C@H]2c2ccc(F)c(F)c2)c2nnn([C@@H]3C[C@H](OCCO)[C@@H](O)[C@H]3O)c2n1 [Ticagrelor]
2 | > 100 | – | ~100 | 61.4 | no significant inhibitory effects | > 100 | > 100 | 28.5 | no significant inhibitory effects | CCCSc1nc(N[C@@H]2C[C@H]2c2ccc(F)c(F)c2)c2nnn([C@@H]3C[C@H](OCCO[C@@H]4O[C@H](C(=O)O)[C@@H](O)[C@H](O)[C@H]4O)[C@@H](O)[C@H]3O)c2n1 [Ticagrelor-O-Glu, ticagrelor-O-glucuronide]
